Reference: patent publication US9815787B2, “Sulfonamide derivative or pharmaceutically acceptable acid addition salt thereof” (UNIVERSITY OF TSUKUBA, priority 2013, dated 2017)

Molecular target: T1, OX2R (Homo sapiens, UniProt O43614)
T1 construct: expressed in transfected cells; host or cells: CHO (Chinese hamster ovary) cells constitutively expressing the OX2R gene and NFAT-luciferase (CHOOX2R)
T1 sequence (O43614 1-444): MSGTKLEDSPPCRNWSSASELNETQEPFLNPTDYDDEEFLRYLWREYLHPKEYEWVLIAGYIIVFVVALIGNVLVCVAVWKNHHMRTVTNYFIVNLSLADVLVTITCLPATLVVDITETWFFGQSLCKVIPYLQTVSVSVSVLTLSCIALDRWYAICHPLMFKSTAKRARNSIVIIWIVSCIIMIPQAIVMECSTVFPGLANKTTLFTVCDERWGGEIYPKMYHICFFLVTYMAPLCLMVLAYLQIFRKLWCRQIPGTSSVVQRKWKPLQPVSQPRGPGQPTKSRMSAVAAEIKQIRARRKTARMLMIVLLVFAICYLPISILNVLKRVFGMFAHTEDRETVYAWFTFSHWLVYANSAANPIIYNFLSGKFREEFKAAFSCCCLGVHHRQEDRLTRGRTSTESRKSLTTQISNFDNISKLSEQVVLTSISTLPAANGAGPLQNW
Experiment: Evaluation of agonist activity against OX2R (CHOOX2R cells, Fura2AM fluorescence, FDSS3000)
Assay type: cell-based
How it was run: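 CHO cells stably expressing human OX2R (and NFAT-luciferase), cultured 48 h in 5% FBS DMEM. Agonist response read as change in Fura2AM fluorescence on compound addition in HEPES buffer. Final compound concentrations 0.1, 1.0 or 10 μM; 1% DMSO.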

[1] = OX2R agonist activity; CHOOX2R cells
[2] = conversion with orexin-A as full agonist (maximum agonist activity 100%)
[3] = test compound 0.1 μM; CHOOX2R cells; relative to orexin-A as full agonist (100%)
[4] = test compound 1.0 μM; CHOOX2R cells; relative to orexin-A as full agonist (100%)
[5] = test compound 10 μM; CHOOX2R cells; relative to orexin-A as full agonist (100%)
[6] = test compound 0.1 μM; relative to orexin-A as full agonist (100%); CHOOX2R cells
[7] = test compound 1.0 μM; relative to orexin-A as full agonist (100%); CHOOX2R cells
[8] = test compound 10 μM; relative to orexin-A as full agonist (100%); CHOOX2R cells

Row | SMILES | EC50 [1] | Emax [2] | Response (0.1 μM (%)) [3] | Response (1.0 μM (%)) [4] | Response (10 μM (%)) [5] | Response (0.1 μM (%)) [6] | Response (1.0 μM (%)) [7] | Response (10 μM (%)) [8]
1 | COc1ccccc1C(=O)NCCNc1cccc(NS(=O)(=O)c2cc(-c3cccnc3)ccc2OC)c1 [Example 96, 2-methoxy-N-(2-((3-(2-methoxy-5-(pyridin-3-yl)phenylsulfonamido)phenyl)amino)ethyl)benzamide] | 268 nM | 88% | <5% | 61% | 88% | – | – | –
2 | COc1cccc(C(=O)NCCNc2cccc(NS(=O)(=O)c3cc(-c4ccccc4O)ccc3OC)c2)c1 [Example 22, N-(2-((3-(2′-hydroxy-4-methoxy-[1,1′-biphenyl]-3-ylsulfonamide)phenyl)amino)ethyl)-3-methoxybenzamide] | – | – | – | – | – | <5% | 15% | 21%
3 | COc1ccccc1C(=O)NCCNc1cccc(NS(=O)(=O)c2cc(-c3cccc(C(=O)NCCO)c3)ccc2OC)c1 [Example 74, N-(2-hydroxyethyl)-4′-methoxy-3′-(N-(3-((2-(2-methoxybenzamido)ethyl)amino)phenyl)sulfamoyl)-[1,1′-biphenyl]-3-carboxamide] | – | – | <5% | 51% | 92% | – | – | –
4 | COc1ccc(-c2cccc(C(=O)N3CCCCC3)c2)cc1S(=O)(=O)Nc1cccc(NCCNC(=O)c2cccc(F)c2)c1 [Example 92, 3-fluoro-N-(2-((3-(4-methoxy-3′-(piperidine-1-carbonyl)-[1,1′-biphenyl]-3-ylsulfonamido)phenyl)amino)ethyl)benzamide] | – | – | 27% | 92% | 94% | – | – | –
5 | COc1ccc(-c2cccc(C(=O)N3CCC3)c2)cc1S(=O)(=O)Nc1cccc(NCCNC(=O)c2c(OC)cccc2OC)c1 [Example 85, N-(2-((3-(3′-(azetidine-1-carbonyl)-4-methoxy-[1,1′-biphenyl]-3-ylsulfonamido)phenyl)amino)ethyl)-2,6-dimethoxybenzamide] | – | – | 19% | 90% | 90% | – | – | –
6 | COc1ccc(-c2cccc(C(=O)N(C)C)c2)cc1S(=O)(=O)Nc1cccc(NCCNC(=O)c2cccnc2Cl)c1 [Example 50, 2-chloro-N-(2-((3-(3′-(dimethylcarbamoyl)-4-methoxy-[1,1′-biphenyl]-3-ylsulfonamido)phenyl)amino)ethyl)nicotinamide] | – | – | <5% | 71% | 76% | – | – | –
7 | COc1ccccc1C(=O)NCCNc1cccc(NS(=O)(=O)c2cc(-c3cccc(N)c3)ccc2OC)c1 [Example 37, N-(2-((3-(3′-amino-4-methoxy-[1,1′-biphenyl]-3-ylsulfonamide)phenyl)amino)ethyl)-2-methoxybenzamide] | – | – | 16% | 102% | 163% | – | – | –
8 | COc1ccccc1C(=O)NCCNc1cccc(NS(=O)(=O)c2cc(-c3ccccc3F)ccc2OC)c1 [Example 1, N-(2-((3-(2′-fluoro-4-methoxy-[1,1′-biphenyl]-3-ylsulfonamide)phenyl)amino)ethyl)-2-methoxybenzamide] | – | – | – | – | – | <5% | 21% | 57%
9 | COc1ccc(-c2cccc(C(=O)N(C)C)c2)cc1S(=O)(=O)Nc1cccc(NCCNC(=O)c2ccccc2C#N)c1 [Example 71, 3′-(N-(3-((2-(2-cyanobenzamido)ethyl)amino)phenyl)sulfamoyl)-4′-methoxy-N,N-dimethyl-[1,1′-biphenyl]-3-carboxamide] | – | – | <5% | 39% | 80% | – | – | –
10 | COc1ccc(-c2cccc(C(=O)N(C)C)c2)cc1S(=O)(=O)Nc1cccc(NCCNC(=O)c2nccn2C)c1 [Example 63, N-(2-((3-(3′-(dimethylcarbamoyl)-4-methoxy-[1,1′-biphenyl]-3-ylsulfonamido)phenyl)amino)ethyl)-1-methyl-1H-imidazole-2-carboxamide] | – | – | <5% | 81% | 82% | – | – | –
11 | COc1cccc(-c2ccc(OC)c(S(=O)(=O)Nc3cccc(NCCNC(=O)c4ccccc4OC)c3)c2)n1 [Example 94, 2-methoxy-N-(2-((3-(2-methoxy-5-(6-methoxypyridin-2-yl)phenylsulfonamido)phenyl)amino)ethyl)benzamide] | – | – | <5% | <5% | 22% | – | – | –
12 | COc1ccccc1C(=O)NCCNc1cccc(NS(=O)(=O)c2cc(-c3cc(F)ccc3Cl)ccc2OC)c1 [Example 32, N-(2-((3-(2′-chloro-5′-fluoro-4-methoxy-[1,1′-biphenyl]-3-ylsulfonamide)phenyl)amino)ethyl)-2-methoxybenzamide] | – | – | – | – | – | <5% | 26% | 75%
13 | COc1cccc(C(=O)NCCNc2cccc(NS(=O)(=O)c3cc(-c4cccc(OC)n4)ccc3OC)c2)c1 [Example 95, 3-methoxy-N-(2-((3-(2-methoxy-5-(6-methoxypyridin-2-yl)phenylsulfonamido)phenyl)amino)ethyl)benzamide] | – | – | <5% | <5% | 30% | – | – | –
14 | COc1cccc(C(=O)NCCNc2cccc(NS(=O)(=O)c3cc(-c4ccccc4OC)ccc3OC)c2)c1 [Example 13, N-(2-((3-(2′,4-dimethoxy-[1,1′-biphenyl]-3-ylsulfonamide)phenyl)amino)ethyl)-3-methoxybenzamide] | – | – | – | – | – | <5% | 64% | 99%
15 | COc1ccccc1C(=O)NCCNc1cccc(NS(=O)(=O)c2cc(-c3cccc(C(=O)N(C)C)c3)ccc2F)c1 [Example 107, 4′-fluoro-3′-(N-(3-((2-(2-methoxybenzamido)ethyl)amino)phenyl)sulfamoyl)-N,N-dimethyl-[1,1′-biphenyl]-3-carboxamide] | – | – | – | – | – | 65% | 79% | 82%
16 | COc1ccc(-c2cccc(C(=O)N(C)C)c2)cc1S(=O)(=O)Nc1cccc(NCCNC(=O)c2ccnn2C)c1 [Example 59, N-(2-((3-(3′-(dimethylcarbamoyl)-4-methoxy-[1,1′-biphenyl]-3-ylsulfonamido)phenyl)amino)ethyl)-1-methyl-1H-pyrazole-5-carboxamide] | – | – | <5% | <5% | 64% | – | – | –
17 | COc1cccc(C(=O)NCCNc2cccc(NS(=O)(=O)c3cc(-c4cc(Cl)cc(Cl)c4)ccc3OC)c2)c1 [Example 28, N-(2-((3-(3′,5′-dichloro-4-methoxy-[1,1′-biphenyl]-3-ylsulfonamide)phenyl)amino)ethyl)-3-methoxybenzamide] | – | – | – | – | – | <5% | <5% | <5%
18 | COc1ccccc1C(=O)NCCNc1cccc(NS(=O)(=O)c2cc(-c3cccc(C(=O)N4CCC4)c3)ccc2OC)c1 [Example 81, N-(2-((3-(3′-(azetidine-1-carbonyl)-4-methoxy-[1,1′-biphenyl]-3-ylsulfonamido)phenyl)amino)ethyl)-2-methoxybenzamide] | 365 nM | 85% | 75% | 98% | 98% | – | – | –
19 | COc1ccc(-c2cccc(C(=O)N(C)C)c2)cc1S(=O)(=O)Nc1cccc(NCCNC(=O)c2sccc2Cl)c1 [Example 62, 3-chloro-N-(2-((3-(3′-(dimethylcarbamoyl)-4-methoxy-[1,1′-biphenyl]-3-ylsulfonamido)phenyl)amino)ethyl)thiophene-2-carboxamide] | 102 nM | 99% | 71% | 92% | 94% | – | – | –
20 | COc1ccc(-c2cccc(C(=O)N(C)C)c2)cc1S(=O)(=O)Nc1cccc(NCCNC(=O)c2c(F)cccc2F)c1 [Example 45, 3′-(N-(3-((2-(2,6-difluorobenzamido)ethyl)amino)phenyl)sulfamoyl)-4′-methoxy-N,N-dimethyl-[1,1′-biphenyl]-3-carboxamide] | 115 nM | 100% | <5% | 80% | 98% | – | – | –
21 | COc1ccc(-c2cccc(C(=O)N3CCCCC3)c2)cc1S(=O)(=O)Nc1cccc(NCCNC(=O)c2cccnc2OC)c1 [Example 91, 2-methoxy-N-(2-((3-(4-methoxy-3′-(piperidine-1-carbonyl)-[1,1′-biphenyl]-3-ylsulfonamido)phenyl)amino)ethyl)nicotinamide] | – | – | 42% | 90% | 80% | – | – | –
22 | COc1ccc(-c2ccccc2F)cc1S(=O)(=O)Nc1cccc(NCCNC(=O)c2cccnc2)c1 [Example 15, N-(2-((3-(2′-fluoro-4-methoxy-[1,1′-biphenyl]-3-ylsulfonamide)phenyl)amino)ethyl)nicotineamide] | – | – | – | – | – | <5% | <5% | 6%
